Legend:
latent HIV-1 = assay: HIV-1 latency reversal activity, GFP expression of J-Lat 10.6 cells; format: cell-based; conditions: for HIV-1 latency reversal activity of isolated compounds (in words): J-lat 10.6 cells, GFP expression, tested at 1, 10 and 100 μM; for EC50: Human immunodeficiency virus 1, J-Lat 10.6, read-out: latency EC50, J-Lat 10.6 cells, HIV-1 reactivation dose-response
Procedure: (§1) Figure 1 HIV-1 latency reversal activity of methanolic crude extract (EU), partitioned n-hexane (EU-H), dichloromethane (EU-C), ethyl acetate (EU-E), and water-soluble residue (EU-W) phases. (A) dose-response experiments conducted with Jurkat T cells that were latently infected with full-length HIV-1 reporter construct (J-Lat 10.6 cells), HIV-1 reactivation quantified as % of positive control (PMA); (B) cell viability of each sample at 10, 50, 100, 500, and 1000 μg/mL.
(§2) Jurkat cells with a full-length integrated HIV-1 provirus that have been modified to contain a GFP coding region in place of the env gene (J-lat 10.6 cells) were used for HIV-1 anti-latency activity, cytotoxicity, and cellular activation testing. All 31 compounds were tested at 1, 10, and 100 μM. […] These compounds were further tested at additional concentrations to determine dose response and toxicity curves (Figure 5A–F). Cell viability for all isolated compounds is presented in Figure S106 in the supplementary material.
The HIV-1-infected Jurkat T cell line (J-Lat 10.6) was obtained in January 2019 from the NIH/ATCC HIV-1 Reagent Program (www.hivreagentprogram.org) and cultured in RPMI-based media supplemented with 10% fetal calf serum, 1% penicillin, and 1% streptomycin.
(§3) After in vitro culture, J-lat cells were washed with phosphate-buffered saline (1× PBS) prior to staining with 0.1 µL fixable viability dye Live/Dead Aqua (Cat L34957, www.thermofisher.com) per 10^5 cells for 30 min at 4 °C. Simultaneously, J-lat cells were also stained with antibodies against CD69 conjugated to an APC fluorophore (APC anti-human CD69 antibody, biolegend.com). Cells were then washed and re-suspended in 1× PBS prior to flow cytometry acquisition evaluating for cellular viability, green fluorescent protein (GFP) expression, and CD69 expression. Flow cytometry was performed with a BD FACSCelesta or FACSCanoto flow cytometer with FACSDiva acquisition software (Becton Dickinson, Mountain View, CA) prior to analysis with FlowJo (TreeStar Inc., Ashland, OR, USA).
Isolated compounds were resuspended in dimethyl sulfoxide (DMSO; Sigma-Aldrich, Burlington, USA), at a concentration of 10 mM, and diluted with PBS, and tested with J-lat 10.6 cells at concentrations of 100, 10, and 1 μM. J-lat 10.6 cells were tested with compounds at a concentration of 2.5 × 10^5 cells/mL. We performed a minimum of three replicates of each condition for all experiments. Negative controls contained 1% DMSO to account for any effect of DMSO in the highest dilution of compounds.

PKC = assay: Latency reversal activity in the presence and absence of pan-PKC inhibitor Gö6983; format: cell-based, human; conditions: presence versus absence of pan-PKC inhibitor Gö6983
Description: (§4) In order to determine whether our active compounds were acting through PKC, we evaluated the latency reversal activity of each of these compounds in the presence and absence of a pan-PKC inhibitor, Gö6983 (Figure 7).
Figure 7 Effect of PKC inhibition on HIV-1 reactivation of compounds 13–14, 21, 26, and 27.

CD69 = CD69 expression on J-lat cells (flow cytometry); format: cell-based, human
Procedure: as §4, §3

HIV-1 = conditions: read-out: EC50, anti-HIV-1 activity; cited from earlier work
in vitro = format: cell-based, human; conditions: human, J-Lat 10.6 cells; read-out: cellular CC50
Procedure: as §1, §2, §3
(§5) Isolated compounds were resuspended in dimethyl sulfoxide (DMSO; Sigma-Aldrich, Burlington, USA), at a concentration of 10 mM, and diluted with PBS, and tested with J-lat 10.6 cells at concentrations of 100, 10, and 1 μM. J-lat 10.6 cells were tested with compounds at a concentration of 2.5 × 10^5 cells/mL. […]

J-Lat 10.6 cells = assay: in vitro; format: cell-based, human; conditions: read-out: cellular CC50
Procedure: as §1, §2, §3, §5

HIV-1 latency = test system: HIV-1 latency; parameters: method as in PMID 30944245; conditions: through the PKC pathway; cited from earlier work
latent HIV = test system: latent HIV; parameters: method as in PMID 30031972; conditions: read-out: EC50, reactivation of latent HIV; cited from earlier work

CC(=O)O[C@@]12[C@H](OC(=O)c3ccccc3)[C@@H](C)[C@]3(O)[C@@H]4C=C(C)C(=O)C4=CC(C)=C[C@H]3[C@@H]1C2(C)C [Compound 12, 12-O-benzoyl-13-acetoxy-4,20-dideoxyphorbol-4-ene]
HIV-1 latency reversal activity of isolated compounds (in words) (latent HIV-1): showed HIV-1 latency reversal activity
latency reversal activity when PKC was inhibited (in words) (PKC): reduced efficacy

COc1cc([C@H]2Oc3c(OC)cc(/C=C/COC(C)=O)cc3[C@@H]2COC(C)=O)ccc1O [Compound 27, dimeric coniferyl acetate]
HIV-1 latency reversal activity of isolated compounds (in words) (latent HIV-1): showed HIV-1 latency reversal activity
latency reversal activity when PKC was inhibited (in words) (PKC): did not show a significant reduction
CD69 expression (hallmark of PKC activation) (in words) (CD69): did not increase CD69 expression

CC1(C)OC[C@@]2(C[C@]34CC[C@H]2C[C@H]3[C@]2(C)CC[C@H](O)C(C)(C)[C@H]2CC4)O1 [euphorneroid D]
EC50 (HIV-1): 34 µM

CC(=O)O[C@@]12[C@H](OC(=O)c3ccccc3)[C@@H](C)[C@]3(O)[C@@H]4C=C(C)C(=O)[C@H]4CC(CO)=C[C@H]3[C@@H]1C2(C)C [Compound 14, 4β-Crotignoid K]
EC50 (latent HIV-1): 0.015 µM
fold difference in selectivity index (CC50/EC50), 14 versus 13 (latent HIV-1; J-Lat 10.6 cells, compared to crotignoid K (13)): ~ 1000 fold
HIV-1 latency reversal activity of isolated compounds (in words) (latent HIV-1): showed HIV-1 latency reversal activity
CC50 at 24 h (in vitro): 160 µM
CC50 (J-Lat 10.6 cells): > 160 µM
latency reversal activity when PKC was inhibited (in words) (PKC): reduced efficacy

CC1=C[C@]23C(=O)[C@@H](C=C(CO)[C@@H](O)[C@]2(O)[C@H]1O)[C@H]1[C@@H](C[C@H]3C)C1(C)C [ingenol]
reactivation of HIV-1 latency (in words) (HIV-1 latency): significant effect in the reactivation of HIV-1 latency

CC(=O)O[C@@]12[C@H](OC(=O)c3ccccc3)[C@@H](C)[C@]3(O)[C@@H]4C=C(C)C(=O)[C@@H]4CC(CO)=C[C@H]3[C@@H]1C2(C)C [Compound 13, crotignoid K]
EC50 (latent HIV-1): 3.75 µM
HIV-1 latency reversal activity of isolated compounds (in words) (latent HIV-1): showed HIV-1 latency reversal activity
CC50 at 24 h (in vitro): 40 µM
latency reversal activity when PKC was inhibited (in words) (PKC): reduced efficacy

ent-3-oxoatisan-16α,17-acetonide
EC50 (HIV-1): 24 µM

CC1=C[C@]23C(=O)[C@@H](C=C(CO)[C@@H](O)[C@]2(O)[C@H]1OC(=O)c1ccc2ccccc2c1)[C@H]1[C@@H](C[C@H]3C)C1(C)C [3-(2-naphthoyl)ingenol]
EC50 (latent HIV): 0.0024 µM

COc1cc(C2OCC3C(c4cc(OC)c(O)c(OC)c4)OCC23)cc(OC)c1O (single isomer, unassigned; (+)) [Compound 26, (+)-syringaresinol]
HIV-1 latency reversal activity of isolated compounds (in words) (latent HIV-1): showed HIV-1 latency reversal activity
latency reversal activity when PKC was inhibited (in words) (PKC): did not show a significant reduction
CD69 expression (hallmark of PKC activation) (in words) (CD69): did not increase CD69 expression

C/C=C(/C)C(=O)O[C@H]1C(C)=C[C@]23C(=O)[C@@H](C=C(CO)[C@@H](O)[C@]12O)[C@H]1[C@@H](C[C@H]3C)C1(C)C [3-angeloylingenol]
EC50 (latent HIV): 0.0042 µM

CC1=C2C=C3CC[C@@H]4C(C)(C)C(=O)CC[C@@]4(C)[C@@H]3C[C@H]2OC1=O [Compound 21, helioscopinolide E]
HIV-1 latency reversal activity of isolated compounds (in words) (latent HIV-1): showed HIV-1 latency reversal activity
latency reversal activity when PKC was inhibited (in words) (PKC): reduced efficacy

— article PMC8308672, “Bioactive Compounds from Euphorbia usambarica Pax. with HIV-1 Latency Reversal Activity” (Pharmaceuticals, 2021)
